Data reported in patent US8357833B2, “Corn plants and seed enhanced for asparagine and protein” (priority 2007, dated 2013).

How the values were obtained:
[1] = target: T1, Zea mays asparagine synthetase Zm AsnS2 (SEQ ID NO: 4, encoded by SEQ ID NO: 3) (Zea mays, UniProt B5U8J7); test: Kinetics of recombinant his-tagged, refolded maize asparagine synthetase AsnS2 (substrate titration, asparagine by HPLC); format: biochemical; conditions: Zm AsnS2; 100 mM Hepes, pH 8.0, 10 mM MgCl2; read-out: Km(NH4^+)
T1 construct: 606 aa
T1 sequence (B5U8J7 1-606): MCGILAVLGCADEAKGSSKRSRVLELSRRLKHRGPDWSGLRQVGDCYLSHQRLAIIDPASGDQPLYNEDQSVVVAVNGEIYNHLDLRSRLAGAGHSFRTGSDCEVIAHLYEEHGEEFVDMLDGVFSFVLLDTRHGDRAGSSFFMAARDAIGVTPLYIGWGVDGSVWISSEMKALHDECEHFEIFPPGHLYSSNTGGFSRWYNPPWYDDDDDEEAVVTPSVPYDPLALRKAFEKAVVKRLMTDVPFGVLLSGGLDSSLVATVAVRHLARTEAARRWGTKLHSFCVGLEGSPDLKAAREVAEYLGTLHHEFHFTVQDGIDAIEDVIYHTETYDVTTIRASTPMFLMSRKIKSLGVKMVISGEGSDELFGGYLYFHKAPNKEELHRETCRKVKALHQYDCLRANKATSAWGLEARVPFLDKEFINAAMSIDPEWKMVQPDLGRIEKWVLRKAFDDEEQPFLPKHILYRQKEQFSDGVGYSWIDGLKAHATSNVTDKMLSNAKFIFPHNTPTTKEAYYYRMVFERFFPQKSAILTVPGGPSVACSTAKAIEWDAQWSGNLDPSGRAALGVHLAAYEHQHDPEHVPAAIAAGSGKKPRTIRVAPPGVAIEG
Protocol: The effect of expression of asparagine synthetase genes on asparagine synthetase activity was measured in transgenic events of pMON79706 and pMON92870. Frozen, ground leaf tissue was aliquoted (200-400 mg) into wells from a precooled 96 deep-well plate. Protein was extracted in Buffer A (100 mM Hepes-OH, pH 8.0, 0.1 mM EDTA, 10 mM MgCl2, 2 mM aspartate, 0.5 mM DTT, 67 mM mercaptoethanol, 20% (v/v) glycerol, 0.1 mM ATP, 1% (v/v) P9599 (Sigma Company), 25 mM KCl). A small amount of sand was added to each well. Buffer A was then added to the leaf tissue in the wells at a ratio of 4:1 (buffer:tissue). The plates were then agitated in a paint shaker for 2 min. to mix the sample and then centrifuged at 5000×g for 10 minutes. The supernatant (100-200 μL) was desalted in a 96-well macro spin plate (SNS S025L, The Nest Group Inc., Southboro, Mass.) equilibrated in buffer A. The supernatant was then either assayed immediately or frozen in liquid nitrogen and maintained at −80° C. until used. […] The mixture was then filtered to remove precipitate and asparagine was measured by HPLC. […]

[2] = target: T2, Zea mays asparagine synthetase Zm AsnS4 (SEQ ID NO: 51, encoded by SEQ ID NO: 50) (Zea mays, UniProt B5U8J9); test: Kinetics of recombinant his-tagged, refolded maize asparagine synthetase AsnS4 (substrate titration, asparagine by HPLC); format: biochemical; conditions: 100 mM Hepes, pH 8.0, 10 mM MgCl2, read-out: Km(NH4^+)
T2 construct: 588 aa
T2 sequence (B5U8J9 1-588): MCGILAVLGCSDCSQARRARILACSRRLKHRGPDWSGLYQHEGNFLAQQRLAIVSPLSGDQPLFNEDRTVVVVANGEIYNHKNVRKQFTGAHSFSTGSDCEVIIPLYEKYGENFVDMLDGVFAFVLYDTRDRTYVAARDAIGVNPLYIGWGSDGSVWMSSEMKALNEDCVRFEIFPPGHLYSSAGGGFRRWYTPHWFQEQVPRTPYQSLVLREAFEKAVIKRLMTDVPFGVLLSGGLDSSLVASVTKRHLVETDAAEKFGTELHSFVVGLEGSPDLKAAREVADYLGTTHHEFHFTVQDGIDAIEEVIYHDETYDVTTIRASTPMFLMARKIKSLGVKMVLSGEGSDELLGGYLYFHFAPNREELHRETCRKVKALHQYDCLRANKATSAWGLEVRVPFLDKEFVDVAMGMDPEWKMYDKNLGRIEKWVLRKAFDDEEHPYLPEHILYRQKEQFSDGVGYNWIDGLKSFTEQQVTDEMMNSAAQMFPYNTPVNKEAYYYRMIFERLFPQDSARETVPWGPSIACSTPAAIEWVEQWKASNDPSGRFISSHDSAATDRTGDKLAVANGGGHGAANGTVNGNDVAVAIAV
Protocol: The effect of expression of asparagine synthetase genes on asparagine synthetase activity was measured in transgenic events of pMON79706 and pMON92870. Frozen, ground leaf tissue was aliquoted (200-400 mg) into wells from a precooled 96 deep-well plate. Protein was extracted in Buffer A (100 mM Hepes-OH, pH 8.0, 0.1 mM EDTA, 10 mM MgCl2, 2 mM aspartate, 0.5 mM DTT, 67 mM mercaptoethanol, 20% (v/v) glycerol, 0.1 mM ATP, 1% (v/v) P9599 (Sigma Company), 25 mM KCl). A small amount of sand was added to each well. Buffer A was then added to the leaf tissue in the wells at a ratio of 4:1 (buffer:tissue). The plates were then agitated in a paint shaker for 2 min. to mix the sample and then centrifuged at 5000×g for 10 minutes. The supernatant (100-200 μL) was desalted in a 96-well macro spin plate (SNS S025L, The Nest Group Inc., Southboro, Mass.) equilibrated in buffer A. The supernatant was then either assayed immediately or frozen in liquid nitrogen and maintained at −80° C. until used. To assay asparagine synthetase activity, desalted protein extracts (10-50 μL) were added to wells containing 100 μL assay solution (100 mM Hepes, pH 8.0, 10 mM MgCl2, 2 mM aspartate, 5 mM DTT, 10 mM ATP, 1 mM amino(oxy)acetic acid (aspartate amino transferase inhibitor), 1 mM aspartic semialdehyde (asparaginase inhibitor). To start the reaction, glutamine (final concentration of 2 mM for standard assay) was added to the solution, which was then mixed. The assay mixture was then incubated for 1 to 2 hours. The reaction was then stopped by the addition of an equal volume of 20% (w/v) trichloroacetic acid. The mixture was then filtered to remove precipitate and asparagine was measured by HPLC. Sample size was increased from 0.5 μL to 2.5 μL for HPLC, excitation wavelength was reduced from 340 nm to 235 nm, and fluorimeter gain was increased from 10 to 13. […]

N [NH4^+]
Km [1]: 0.75 mM
Km [2]: 9 mM
